The target in this assay is T1, human heme oxygenase-1 (hHO-1) (Homo sapiens, UniProt P09601).
T1 sequence (P09601 1-288): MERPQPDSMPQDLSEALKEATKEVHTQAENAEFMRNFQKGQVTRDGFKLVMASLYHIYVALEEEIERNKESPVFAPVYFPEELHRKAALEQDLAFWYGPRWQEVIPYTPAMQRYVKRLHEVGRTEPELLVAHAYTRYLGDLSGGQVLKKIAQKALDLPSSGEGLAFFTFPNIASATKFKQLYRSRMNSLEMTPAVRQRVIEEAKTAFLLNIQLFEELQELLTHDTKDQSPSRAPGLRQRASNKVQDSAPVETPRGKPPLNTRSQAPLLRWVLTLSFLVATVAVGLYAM
Nature of the assay: UV-Vis Soret equilibrium binding titration.

Broadly, the Kd is a measure of binding affinity in units of concentration. As for `Brc1ccc(CCC2(Cn3ccnc3)OCCO2)cc1` [OB-24], the Kd worked out at 4.46 ± 0.8 µM.

For the origin of these results see paper PMC10189658 (Journal of inorganic biochemistry, 2023).
